Measurements published in patent publication US20210032304A1, “FIBROBLAST GROWTH FACTOR ANALOGS AND USES THEREOF” (University of Florida Research Foundation, Inc., priority 2018, published 2021).
Residues, ends and D or L forms follow the SMILES beside them.

Key:
[1] = tested on: radiation damage (sub-TBI) in Swiss male mice; assay: Sub-TBI irradiation model, survival and body weight over 30 days; format: in vivo; conditions: for dose needed to gain survival benefit: sub-TBI NIH Swiss model
Procedure: 150 outbred stock (NIS) Swiss males (8-11 weeks) were subjected to 5 sub-TBI doses (0, 18, 19.5, 20.5, 21.5 Gy). Three single dosages of FGF-P were administered 24 hr post-IR (5.0, 10, and 20 mg/kg), and two single dosages of FGF-PT were administered 24 hr post-IR (10 and 20 mg/kg). One dosage of FGF2 (0.3 mg/kg) and a saline vehicle control was also administered. Animals were followed for signs of distress, survivors, and weight loss/gain for 30 days. Survivors at the end of 30 days were euthanized.
Radiation doses were chosen to bracket the highest dose with few or no deaths (LD20) and the lowest dose with few or no survivors (LD80), thus ensuring a range that includes the LD50 and statistically delivers the highest accuracy and precision per animal.

FGFR-1 alpha IIIc [2] = molecular target: T1, FGFR-1 alpha IIIc (Homo sapiens, UniProt P11362); assay: SPR (Horiba XelPlex), receptor immobilised, analyte in flow; given as 'associative binding constants'
FGFR-2 alpha IIIc = FGFR-2 alpha IIIc (Homo sapiens, UniProt P21802); assay: as above
FGFR-1 alpha IIIc [3] = molecular target: T1, FGFR-1 alpha IIIc; assay: SPR (Horiba XelPlex), ratio to rhFGF2 on the same receptor
[4] = molecular target: T2, FGFR-1 alpha IIIb, P11362; assay: as above
T2 chain: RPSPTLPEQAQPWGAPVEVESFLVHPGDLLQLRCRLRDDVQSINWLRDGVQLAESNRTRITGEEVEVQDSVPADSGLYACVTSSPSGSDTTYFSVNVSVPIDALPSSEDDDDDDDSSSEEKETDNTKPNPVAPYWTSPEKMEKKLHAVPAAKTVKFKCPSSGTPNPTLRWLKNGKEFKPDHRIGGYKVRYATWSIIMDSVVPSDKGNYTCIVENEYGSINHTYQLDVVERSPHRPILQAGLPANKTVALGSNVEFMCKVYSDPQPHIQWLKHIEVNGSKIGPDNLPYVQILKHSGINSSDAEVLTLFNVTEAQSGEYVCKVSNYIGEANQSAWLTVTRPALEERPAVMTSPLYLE

[5] = molecular target: T2, FGFR-1 alpha IIIb, P11362; assay: SPR (Horiba XelPlex), receptor immobilised, analyte in flow; given as 'associative binding constants'
[6] = 18 Gy sub-TBI, single dose 24 hr post-IR, different doses, 30 days
[7] = 19.5 Gy sub-TBI, all doses, single dose 24 hr post-IR
[8] = 20.5 Gy sub-TBI, many doses, particularly FGF-P 5-20 mg/kg

Molecule | survival [1, 7] | survival [1, 8] | dose needed to gain survival benefit [1] [mg/kg] | Kd (FGFR-1 alpha IIIc [2]) [nM] | also measured
CC(C)C[C@@H]1NC(=O)[C@H](C)NC(=O)[C@H](C(C)C)NC(=O)[C@H](Cc2ccc(O)cc2)NC(=O)[C@H](Cc2c[nH]c3ccccc23)NC(=O)[C@H](CO)NC(=O)[C@H]([C@@H](C)O)NC(=O)[C@H](Cc2ccc(O)cc2)NC(=O)[C@H](CCCCN)NC(=O)[C@H](CCCNC(=N)N)NC(=O)[C@H](CO)NC(=O)[C@H](CCCNC(=N)N)NC(=O)[C@H](Cc2ccc(O)cc2)NC(=O)[C@@H](N)CSSC[C@@H](C(=O)O)NC(=O)[C@H](CCCNC(=N)N)NC(=O)[C@H](CCCCN)NC1=O [FGF-PT] (HELM PEPTIDE1{C.Y.R.S.R.K.Y.T.S.W.Y.V.A.L.K.R.C}$PEPTIDE1,PEPTIDE1,1:R3-17:R3$$$V2.0; N-terminus and C-terminus assumed) | Improved survival | Improved survival | 10 |  | survival [1, 6]: Improved survival; weight recovery [1, 6]: weight recovery; weight recovery ([1]; 19.5 Gy sub-TBI, different doses, recovery after severe weight loss): weight recovery; weight recovery ([1]; 20.5 Gy sub-TBI, different doses, recovery after very severe weight loss): weight recovery
recombinant human basic FGF (rhFGF2) (from UniProt P09038 143-288) (ligand) |  |  |  | 0.83 | Kd (FGFR-2 alpha IIIc): 1.7 nM
rhFGF2: recombinant human basic FGF | Improved survival | Improved survival | 0.3 |  | 
YRSRKYTSWYVALKR (modifications not checked) [FGF-PT] |  |  |  | 1000 | fold of binding constant against rhFGF2 (FGFR-1 alpha IIIc [3]): 1000 fold; fold of binding constant against rhFGF2 [4]: 1000 fold; Kd [5]: 1500 nM
